Target: T1, soluble guanylate cyclase (sGC) (Homo sapiens, UniProt Q02108+Q02153)
T1 construct: endogenously expressing soluble guanylate cyclase (sGC); endogenous in cells; host or cells: HEK293
T1 sequence (Q02153 1-619): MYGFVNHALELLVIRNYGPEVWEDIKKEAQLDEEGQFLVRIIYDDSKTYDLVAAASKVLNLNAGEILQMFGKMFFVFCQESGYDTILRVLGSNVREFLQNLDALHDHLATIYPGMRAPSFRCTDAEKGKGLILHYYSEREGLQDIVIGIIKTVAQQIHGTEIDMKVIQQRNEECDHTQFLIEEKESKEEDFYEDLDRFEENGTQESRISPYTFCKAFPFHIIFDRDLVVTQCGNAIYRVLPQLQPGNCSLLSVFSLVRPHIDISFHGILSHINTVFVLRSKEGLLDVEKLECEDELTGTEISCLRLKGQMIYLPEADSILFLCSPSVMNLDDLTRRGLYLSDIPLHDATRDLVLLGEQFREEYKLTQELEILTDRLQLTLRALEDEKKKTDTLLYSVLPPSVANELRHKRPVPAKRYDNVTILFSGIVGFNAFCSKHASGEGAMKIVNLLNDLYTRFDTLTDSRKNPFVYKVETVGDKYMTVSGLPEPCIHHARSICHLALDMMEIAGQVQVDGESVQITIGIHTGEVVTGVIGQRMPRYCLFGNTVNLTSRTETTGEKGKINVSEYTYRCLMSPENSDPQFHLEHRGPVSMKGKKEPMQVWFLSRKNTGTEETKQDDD
T1 sequence (Q02108 1-690): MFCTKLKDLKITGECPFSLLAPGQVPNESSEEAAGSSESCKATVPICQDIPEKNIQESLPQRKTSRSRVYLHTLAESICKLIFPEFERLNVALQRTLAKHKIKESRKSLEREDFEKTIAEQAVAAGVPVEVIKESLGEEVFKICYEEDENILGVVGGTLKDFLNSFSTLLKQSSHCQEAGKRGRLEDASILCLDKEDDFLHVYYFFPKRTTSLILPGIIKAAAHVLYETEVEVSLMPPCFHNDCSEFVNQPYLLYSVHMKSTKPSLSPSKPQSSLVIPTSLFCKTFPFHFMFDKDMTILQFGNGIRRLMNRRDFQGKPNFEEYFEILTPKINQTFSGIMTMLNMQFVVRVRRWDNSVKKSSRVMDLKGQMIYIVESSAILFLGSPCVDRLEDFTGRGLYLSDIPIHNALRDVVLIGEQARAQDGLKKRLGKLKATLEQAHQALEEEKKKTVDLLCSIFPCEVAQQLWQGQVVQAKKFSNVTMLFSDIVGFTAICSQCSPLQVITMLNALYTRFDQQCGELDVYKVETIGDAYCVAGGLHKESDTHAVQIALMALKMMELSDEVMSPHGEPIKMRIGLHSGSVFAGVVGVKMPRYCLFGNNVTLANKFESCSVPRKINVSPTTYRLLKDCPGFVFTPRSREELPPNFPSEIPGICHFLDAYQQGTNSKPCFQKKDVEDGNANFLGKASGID
Test: sGC-HEK-cGMP assay
Format: cell-based
Settings: HEK293 cells, 10 min incubation, intracellular cGMP by LC/MS; for Increase in cGMP Concentration Tested at 10 μM in HEK Assay: test compound 10 μM; for Increase in cGMP Concentration Tested at 30 μM in HEK Assay: test compound 30 μM
Method: Human embryonic kidney cells (HEK293), endogenously expressing soluble guanylate cyclase (sGC), were used to evaluate the activity of test compounds. Compounds stimulating the sGC receptor should cause an increase in the intracellular concentration of cGMP. […] Cells were then incubated for 15 minutes at 37° C. with 0.5 mM 3-isobutyl-1-methylxanthine (2004). Test article was then added to the assay mixture (2 μL) and incubated at 37° C. for 10 minutes. After the 10 minute incubation, the assay mixture was aspirated and 0.1M HCl (2004) was added to the cells. The plate was incubated at 4° C. for 30 minutes in the 0.1M HCl to stop the reaction and lyse the cells. The plates were then centrifuged at 1,200 g for 5 minutes at room temperature. Supernatants were collected and transferred to a new flat bottom 96 well plate for analysis. Vehicle controls were carried out using DMSO (1%). A known sGC stimulator, BAY 41-2272, was used as the positive control.
Samples were diluted with an equal volume of 1 M Ammonium Acetate (pH 7) to neutralize samples for better chromatography. A 2×cGMP standard curve was prepared in 0.1 M HCl and then diluted with an equal volume of 1 M Ammonium Acetate, with the following final concentrations in nM: 1024, 512, 256, 128, 64, 32, 16, 8, 4, 2, 1.
cGMP concentrations were determined from each sample using the LC/MS conditions (Table 2 below) and calculated standard curve. EC50 values were calculated from concentration-response curves generated with GraphPad Prism Software.

SMILES	Increase in cGMP Concentration Tested at 10 μM in HEK Assay	Increase in cGMP Concentration Tested at 30 μM in HEK Assay
CC1(C)C=Cc2c(c(-c3ncccn3)nn2Cc2ccccc2F)C1 [Compound I-29]	A (A represents no increase or an increase ranging from more than 0 fold to less than 5 fold)	B (B represents an increase ranging from 5 fold to less than 10 fold)
CC1(C)CC(=O)c2c(-c3ncccn3)nn(Cc3ccccc3F)c2C1 [Compound I-20]	A (A represents no increase or an increase ranging from more than 0 fold to less than 5 fold)	A (A represents no increase or an increase ranging from more than 0 fold to less than 5 fold)
COc1ccccc1C(=O)N1CCc2c(c(-c3ncccn3)nn2Cc2ccccc2F)C1 [Compound I-57]	B (B represents an increase ranging from 5 fold to less than 10 fold)	C (C represents an increase ranging from 10 fold to less than 20 fold)
Fc1ccccc1Cn1nc(-c2ncccn2)c2c1CCCCC2 [Compound I-18]	B (B represents an increase ranging from 5 fold to less than 10 fold)	C (C represents an increase ranging from 10 fold to less than 20 fold)
Nc1nc(-c2nn(Cc3ccccc3F)c3c2CCCC3)ncc1-c1ccncc1 [Compound I-27]	A (A represents no increase or an increase ranging from more than 0 fold to less than 5 fold)	A (A represents no increase or an increase ranging from more than 0 fold to less than 5 fold)
Fc1cccc(Cn2nc(-c3ncccn3)c3c2CCCC3)c1 [Compound I-7]	C (C represents an increase ranging from 10 fold to less than 20 fold)	D (D represents an increase ranging from 20 fold to less than 50 fold)
CS(=O)(=O)N1CCc2c(c(-c3ncccn3)nn2Cc2ccccc2F)C1 [Compound I-51, 1-(2-fluorobenzyl)-5-(methylsulfonyl)-3-(pyrimidin-2-yl)-4,5,6,7-tetrahydro-1H-pyrazolo[4,3-c]pyridine]	A (A represents no increase or an increase ranging from more than 0 fold to less than 5 fold)	A (A represents no increase or an increase ranging from more than 0 fold to less than 5 fold)
CC(=O)N1CCc2c(c(-c3ncccn3)nn2Cc2ccccc2F)C1 [Compound I-52, 1-(1-(2-fluorobenzyl)-3-(pyrimidin-2-yl)-6,7-dihydro-1H-pyrazolo[4,3-c]pyridin-5(4H)-yl)ethanone]	A (A represents no increase or an increase ranging from more than 0 fold to less than 5 fold)	A (A represents no increase or an increase ranging from more than 0 fold to less than 5 fold)
COc1cccc(C(=O)N2CCc3c(c(-c4ncccn4)nn3Cc3ccccc3F)C2)c1 [Compound I-58]	A (A represents no increase or an increase ranging from more than 0 fold to less than 5 fold)	–
O=S1(=O)CCc2c(c(-c3ncccn3)nn2Cc2ccccc2F)C1 [Compound I-19]	A (A represents no increase or an increase ranging from more than 0 fold to less than 5 fold)	A (A represents no increase or an increase ranging from more than 0 fold to less than 5 fold)
O=C(c1ccccn1)N1CCc2c(c(-c3ncccn3)nn2Cc2ccccc2F)C1 [Compound I-56]	A (A represents no increase or an increase ranging from more than 0 fold to less than 5 fold)	A (A represents no increase or an increase ranging from more than 0 fold to less than 5 fold)
Nc1nc(-c2nn(Cc3ccccc3F)c3c2CCCC3)nc(N)c1NC(=O)OCCCl [Compound I-25]	A (A represents no increase or an increase ranging from more than 0 fold to less than 5 fold)	B (B represents an increase ranging from 5 fold to less than 10 fold)
Nc1ccnc(-c2nn(Cc3ccccc3F)c3c2C2CCC3C2)n1 (centres unmarked) [Compound I-31]	A (A represents no increase or an increase ranging from more than 0 fold to less than 5 fold)	A (A represents no increase or an increase ranging from more than 0 fold to less than 5 fold)
Fc1ccccc1Cn1nc(-c2ccncc2)c2c1CCCC2 [Compound I-49, 1-(2-fluorobenzyl)-3-(pyridin-4-yl)-4,5,6,7-tetrahydro-1H-indazole]	A (A represents no increase or an increase ranging from more than 0 fold to less than 5 fold)	A (A represents no increase or an increase ranging from more than 0 fold to less than 5 fold)
COC(=O)Nc1c(N)nc(-c2nn(Cc3ccccc3F)c3c2CCCC3)nc1N [Compound I-13]	A (A represents no increase or an increase ranging from more than 0 fold to less than 5 fold)	A (A represents no increase or an increase ranging from more than 0 fold to less than 5 fold)
COC(=O)N(Cc1ccccc1F)c1c(N)nc(-c2nn(Cc3ccccc3F)c3c2CCCC3)nc1N [Compound I-23]	C (C represents an increase ranging from 10 fold to less than 20 fold)	C (C represents an increase ranging from 10 fold to less than 20 fold)
c1cnc(-c2nn(Cc3cccc4ccsc34)c3c2CCCC3)nc1 [Compound I-10]	B (B represents an increase ranging from 5 fold to less than 10 fold)	B (B represents an increase ranging from 5 fold to less than 10 fold)
COc1cccc(Cn2nc(-c3ncccn3)c3c2CCCC3)c1 [Compound I-5]	B (B represents an increase ranging from 5 fold to less than 10 fold)	C (C represents an increase ranging from 10 fold to less than 20 fold)
Fc1ccccc1Cn1nc(-c2ncccn2)c2c1CCC(F)(F)C2 [Compound I-30]	A (A represents no increase or an increase ranging from more than 0 fold to less than 5 fold)	A (A represents no increase or an increase ranging from more than 0 fold to less than 5 fold)
Fc1ccccc1Cn1nc(-c2ncccn2)c2c1CCSC2 [Compound I-15]	C (C represents an increase ranging from 10 fold to less than 20 fold)	C (C represents an increase ranging from 10 fold to less than 20 fold)
COC(=O)N(Cc1ccccc1F)c1c(N)nc(-c2nn(Cc3ccccc3F)c3c2CCCC3)nc1NCc1ccccc1F [Compound I-24]	A (A represents no increase or an increase ranging from more than 0 fold to less than 5 fold)	A (A represents no increase or an increase ranging from more than 0 fold to less than 5 fold)

Reference: patent publication US20130178475A1, “sGC STIMULATORS” (IRONWOOD PHARMACEUTICALS, INC., priority 2010, published 2013)
